These are literature values, as cited in US20090270472A1, “METHOD TO USE OXYMETAZOLINE TO INTERRUPT THE DEVELOPMENT OF THE COMMON COLD SYNDROME” (priority 2008, published 2009).

Each structure is given as a SMILES string.

The conditions of the series: subjects with acute rhinitis; six (6) days with saline placebo.

Regarding `Cc1cc(C(C)(C)C)c(O)c(C)c1CC1=NCCN1` [oxymetazoline], the duration of rhinitis is reported as 4 days.
